ChEMBL document CHEMBL5665443, “Enzyme Inhibitor Single Concentration assay results for EUbOPEN Chemogenomics Library” (2024)
“And” between values parts separate entries of the source, which are not always exact repeats. Identical values can stand only once.

What was measured:
Conditions in all cases: Compound Concentration 10.0 uM, Hit No
[1] = target: Endonuclease 8-like 1 (Homo sapiens) (UniProt Q96FI4);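 also: fluorescence at 594 nm from quenched duplex DNA oligonucleotides released by NEIL1 cleavage and strand separation, reported as reduction of this enzyme activity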
Endonuclease 8-like 1 (Homo sapiens), sequence (Q96FI4 whole entry): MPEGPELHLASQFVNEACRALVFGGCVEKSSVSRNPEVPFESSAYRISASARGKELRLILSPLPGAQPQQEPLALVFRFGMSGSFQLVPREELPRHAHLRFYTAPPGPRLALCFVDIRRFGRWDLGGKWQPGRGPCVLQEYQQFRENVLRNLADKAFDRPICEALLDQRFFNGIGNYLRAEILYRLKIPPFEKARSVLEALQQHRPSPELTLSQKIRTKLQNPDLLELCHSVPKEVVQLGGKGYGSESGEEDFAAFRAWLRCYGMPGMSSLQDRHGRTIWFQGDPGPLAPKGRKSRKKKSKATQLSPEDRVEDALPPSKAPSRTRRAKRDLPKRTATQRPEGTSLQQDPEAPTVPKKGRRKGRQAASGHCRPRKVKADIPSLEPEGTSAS
Description: Inhibition of NEIL1 by quantifying inhibition of NEIL1-mediated cleavage and dissociation of quenched duplex DNA oligonucleotides, measured as fluorescence at 594 nm.

[2] = target: T1, Endonuclease III-like protein 1 (Homo sapiens) (UniProt P78549);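 also: enzyme assay tracking NTHL1 cutting and release of a quenched double-stranded DNA oligo substrate, read as fluorescence at 594 nm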
T1 sequence (whole entry): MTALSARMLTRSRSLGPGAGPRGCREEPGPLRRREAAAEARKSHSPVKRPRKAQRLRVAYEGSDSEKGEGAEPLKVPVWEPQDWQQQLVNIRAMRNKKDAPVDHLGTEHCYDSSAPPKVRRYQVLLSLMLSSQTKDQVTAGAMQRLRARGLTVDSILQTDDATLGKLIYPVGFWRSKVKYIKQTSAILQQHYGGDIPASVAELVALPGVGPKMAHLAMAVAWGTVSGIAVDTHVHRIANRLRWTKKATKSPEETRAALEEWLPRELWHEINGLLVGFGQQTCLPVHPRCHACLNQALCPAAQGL
Description: Inhibition of NTHL1 by quantifying inhibition of NTHL1-mediated cleavage and dissociation of quenched duplex DNA oligonucleotides, measured as fluorescence at 594 nm.

[3] = target: T2, Adenine DNA glycosylase (Homo sapiens) (UniProt Q9UIF7);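 also: human MUTYH activity read as 594 nm fluorescence from cleavage and release of a quenched DNA duplex, coupled with APE1 for strand incision, lower signal meaning inhibition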
T2 sequence (whole entry): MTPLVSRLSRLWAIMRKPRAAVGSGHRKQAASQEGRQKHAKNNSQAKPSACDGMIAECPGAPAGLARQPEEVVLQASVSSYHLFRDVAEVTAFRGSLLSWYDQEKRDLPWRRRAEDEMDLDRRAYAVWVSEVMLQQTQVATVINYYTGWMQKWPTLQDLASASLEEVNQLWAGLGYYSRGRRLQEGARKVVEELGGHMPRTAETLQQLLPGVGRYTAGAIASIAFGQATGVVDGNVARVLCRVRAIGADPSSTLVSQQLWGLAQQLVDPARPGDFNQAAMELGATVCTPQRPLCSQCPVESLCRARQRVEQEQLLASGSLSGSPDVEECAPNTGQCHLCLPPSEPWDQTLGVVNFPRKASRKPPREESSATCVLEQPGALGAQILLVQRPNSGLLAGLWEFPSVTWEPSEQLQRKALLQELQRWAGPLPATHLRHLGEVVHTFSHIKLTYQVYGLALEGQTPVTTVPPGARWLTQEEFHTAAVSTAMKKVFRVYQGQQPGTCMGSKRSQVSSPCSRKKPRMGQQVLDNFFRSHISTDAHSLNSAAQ
Description: Inhibition of MUTYH by quantifying inhibition of MUTYH-mediated cleavage and dissociation of quenched duplex DNA oligonucleotides, measured as fluorescence at 594 nm. To generate a functional strand incision and increase turn-over this assay is coupled to APE1.

[4] = target: T3, Endonuclease 8-like 2 (Homo sapiens) (UniProt Q969S2);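 also: fluorescence at 594 nm reports NEIL2 cutting and release of a quenched double-stranded DNA oligo substrate, reduced signal read as inhibition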
T3 sequence (whole entry): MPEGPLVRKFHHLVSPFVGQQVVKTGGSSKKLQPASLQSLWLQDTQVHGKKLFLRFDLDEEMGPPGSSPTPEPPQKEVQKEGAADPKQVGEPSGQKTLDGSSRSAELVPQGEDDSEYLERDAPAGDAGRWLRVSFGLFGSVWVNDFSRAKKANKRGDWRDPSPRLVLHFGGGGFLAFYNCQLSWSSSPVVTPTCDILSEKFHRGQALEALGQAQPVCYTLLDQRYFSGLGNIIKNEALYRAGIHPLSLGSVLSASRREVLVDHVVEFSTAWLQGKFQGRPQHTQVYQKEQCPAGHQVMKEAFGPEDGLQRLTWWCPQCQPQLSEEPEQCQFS
Description: Inhibition of NEIL2 by quantifying inhibition of NEIL2-mediated cleavage and dissociation of quenched duplex DNA oligonucleotides, measured as fluorescence at 594 nm.

[5] = target: T4, Single-strand selective monofunctional uracil DNA glycosylase (Homo sapiens) (UniProt Q53HV7);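 also: enzymatic SMUG1 assay coupled with APE1, reading fluorescence at 594 nm released when a quenched double-stranded DNA oligonucleotide substrate is cleaved and separated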
T4 sequence (whole entry): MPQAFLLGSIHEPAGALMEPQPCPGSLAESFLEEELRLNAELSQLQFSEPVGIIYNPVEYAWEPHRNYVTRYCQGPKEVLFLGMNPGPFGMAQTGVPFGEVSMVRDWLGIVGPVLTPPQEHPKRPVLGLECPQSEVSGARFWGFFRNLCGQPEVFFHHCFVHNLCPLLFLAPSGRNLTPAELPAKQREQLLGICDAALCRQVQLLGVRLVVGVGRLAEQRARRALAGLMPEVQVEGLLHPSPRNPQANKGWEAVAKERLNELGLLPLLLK
Description: Inhibition of SMUG1 by quantifying inhibition of SMUG1-mediated cleavage and dissociation of quenched duplex DNA oligonucleotides, measured as fluorescence at 594 nm. To generate a functional strand incision and increase turn-over this assay is coupled to APE1.

[6] = target: G/T mismatch-specific thymine DNA glycosylase (Homo sapiens) (UniProt Q13569);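 also: human TDG cleavage of quenched duplex DNA oligonucleotides coupled to APE1, strand release read as fluorescence at 594 nm, inhibition of TDG activity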
G/T mismatch-specific thymine DNA glycosylase (Homo sapiens), sequence (Q13569 whole entry): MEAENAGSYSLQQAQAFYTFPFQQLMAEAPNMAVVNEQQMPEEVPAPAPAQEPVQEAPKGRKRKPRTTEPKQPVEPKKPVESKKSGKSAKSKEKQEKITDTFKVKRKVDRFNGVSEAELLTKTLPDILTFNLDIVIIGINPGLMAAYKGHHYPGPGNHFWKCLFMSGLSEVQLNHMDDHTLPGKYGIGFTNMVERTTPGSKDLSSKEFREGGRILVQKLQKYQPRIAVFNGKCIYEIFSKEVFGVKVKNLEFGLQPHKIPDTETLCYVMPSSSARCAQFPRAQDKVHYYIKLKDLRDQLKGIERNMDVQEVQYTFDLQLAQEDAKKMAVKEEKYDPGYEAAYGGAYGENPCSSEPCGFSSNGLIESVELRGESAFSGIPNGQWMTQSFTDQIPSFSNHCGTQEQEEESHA
Description: Inhibition of TDG by quantifying inhibition of TDG-mediated cleavage and dissociation of quenched duplex DNA oligonucleotides, measured as fluorescence at 594 nm. To generate a functional strand incision and increase turn-over this assay is coupled to APE1.

[7] = target: DNA-3-methyladenine glycosylase (Homo sapiens) (UniProt P29372);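 also: enzyme assay where MPG cuts a quenched duplex DNA oligonucleotide probe, paired with APE1 for strand incision and turnover, read as fluorescence at 594 nm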
DNA-3-methyladenine glycosylase (Homo sapiens), sequence (P29372 whole entry, the tested form may be a part): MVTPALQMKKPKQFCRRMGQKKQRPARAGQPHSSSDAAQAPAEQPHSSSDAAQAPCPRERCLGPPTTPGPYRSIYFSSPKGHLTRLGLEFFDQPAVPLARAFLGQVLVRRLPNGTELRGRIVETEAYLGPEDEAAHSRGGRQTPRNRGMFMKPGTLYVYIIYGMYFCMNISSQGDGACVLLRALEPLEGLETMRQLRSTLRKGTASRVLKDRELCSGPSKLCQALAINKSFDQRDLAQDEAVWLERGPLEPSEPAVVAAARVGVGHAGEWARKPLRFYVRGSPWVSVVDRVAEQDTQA
Description: Inhibition of MPG by quantifying inhibition of MPG-mediated cleavage and dissociation of quenched duplex DNA oligonucleotides, measured as fluorescence at 594 nm. To generate a functional strand incision and increase turn-over this assay is coupled to APE1.

[8] = target: Methyl-CpG-binding domain protein 4 (Homo sapiens) (UniProt O95243);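 also: MBD4 activity read as fluorescence at 594 nm from cleavage and release of a quenched duplex DNA oligonucleotide, with APE1 coupled to incise the strand and raise turnover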
Methyl-CpG-binding domain protein 4 (Homo sapiens), sequence (O95243 whole entry, the tested form may be a part): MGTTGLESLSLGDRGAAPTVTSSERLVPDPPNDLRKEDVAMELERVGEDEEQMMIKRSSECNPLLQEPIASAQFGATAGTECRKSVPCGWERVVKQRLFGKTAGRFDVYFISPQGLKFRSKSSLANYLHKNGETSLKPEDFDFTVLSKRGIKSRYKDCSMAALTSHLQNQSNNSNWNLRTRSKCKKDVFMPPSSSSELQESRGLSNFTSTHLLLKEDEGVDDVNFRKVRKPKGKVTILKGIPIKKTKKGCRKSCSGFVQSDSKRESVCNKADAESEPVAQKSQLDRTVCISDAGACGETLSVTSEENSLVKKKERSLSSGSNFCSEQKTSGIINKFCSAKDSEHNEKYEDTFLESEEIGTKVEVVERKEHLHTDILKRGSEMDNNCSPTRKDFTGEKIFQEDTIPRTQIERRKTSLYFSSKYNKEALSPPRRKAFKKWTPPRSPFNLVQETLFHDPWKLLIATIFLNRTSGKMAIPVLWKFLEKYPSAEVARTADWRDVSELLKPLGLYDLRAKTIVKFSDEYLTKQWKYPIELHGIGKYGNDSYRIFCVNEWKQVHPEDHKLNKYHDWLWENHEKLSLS
Description: Inhibition of MBD4 by quantifying inhibition of MBD4-mediated cleavage and dissociation of quenched duplex DNA oligonucleotides, measured as fluorescence at 594 nm. To generate a functional strand incision and increase turn-over this assay is coupled to APE1.

[9] = target: Uracil-DNA glycosylase (Homo sapiens) (UniProt P13051);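 also: UNG excision on a quenched double-stranded DNA oligo probe, with APE1 added for strand incision and turnover, read as fluorescence at 594 nm as strands separate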
Uracil-DNA glycosylase (Homo sapiens), sequence (P13051 whole entry): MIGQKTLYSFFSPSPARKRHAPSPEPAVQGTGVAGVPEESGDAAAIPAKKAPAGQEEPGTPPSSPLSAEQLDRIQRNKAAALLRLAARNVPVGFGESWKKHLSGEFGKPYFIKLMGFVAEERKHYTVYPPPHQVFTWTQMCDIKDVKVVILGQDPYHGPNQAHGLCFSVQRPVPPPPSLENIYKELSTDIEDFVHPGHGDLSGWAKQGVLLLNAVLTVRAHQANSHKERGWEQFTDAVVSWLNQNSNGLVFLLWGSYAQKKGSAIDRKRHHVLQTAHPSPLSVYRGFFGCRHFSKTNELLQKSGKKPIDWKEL
Description: Inhibition of UNG by quantifying inhibition of UNG-mediated cleavage and dissociation of quenched duplex DNA oligonucleotides, measured as fluorescence at 594 nm. To generate a functional strand incision and increase turn-over this assay is coupled to APE1.

[10] = target: N-glycosylase/DNA lyase (Homo sapiens) (UniProt O15527);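 also: OGG1 cleavage of a quenched duplex DNA oligonucleotide, coupled to APE1 for strand incision, read as fluorescence at 594 nm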
N-glycosylase/DNA lyase (Homo sapiens), sequence (O15527 whole entry): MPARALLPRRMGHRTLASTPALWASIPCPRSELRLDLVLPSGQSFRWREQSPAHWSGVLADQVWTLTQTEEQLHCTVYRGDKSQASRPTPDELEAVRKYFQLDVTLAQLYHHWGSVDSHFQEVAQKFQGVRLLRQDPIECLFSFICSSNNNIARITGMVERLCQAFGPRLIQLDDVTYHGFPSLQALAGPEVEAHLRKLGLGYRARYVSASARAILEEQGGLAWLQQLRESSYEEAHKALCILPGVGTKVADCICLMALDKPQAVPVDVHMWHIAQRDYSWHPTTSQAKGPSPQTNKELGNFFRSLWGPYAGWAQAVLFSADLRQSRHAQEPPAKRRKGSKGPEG
Description: Inhibition of OGG1 by quantifying inhibition of OGG1-mediated cleavage and dissociation of quenched duplex DNA oligonucleotides, measured as fluorescence at 594 nm. To generate a functional strand incision and increase turn-over this assay is coupled to APE1.

## COCc1nc2cnc3cc(-c4c(C)noc4C)c(OC[C@H]4CCNC4)cc3c2n1[C@H](C)c1ccccc1
[1]
  inhibition: -6.95%
[2]
  inhibition: -9.18%
[3]
  inhibition: 2.41%
[4]
  inhibition: -1.25%
[5]
  inhibition: -7.21%
[6]
  inhibition: 54.7%
[7]
  inhibition: -8.22%
[8]
  inhibition: 57.4%
[9]
  inhibition: -1.93%

## NCCc1cccs1
[1]
  inhibition: 7.57%
[2]
  inhibition: 8.82%
[3]
  inhibition: -1.84%
[4]
  inhibition: 9.33%
[5]
  inhibition: -0.24%
[6]
  inhibition: 6.37%
[7]
  inhibition: -5.51%
[8]
  inhibition: 2.05%
[9]
  inhibition: -3.89%

## CN(C)CCCc1cc(C(=O)Nc2ccc(-c3ccncc3)cc2)ccc1O
[1]
  inhibition: 0.602%
[2]
  inhibition: 12.1%
[3]
  inhibition: 5.24%
[4]
  inhibition: 8.82%
[5]
  inhibition: 1.23%
[6]
  inhibition: 22.9%
[7]
  inhibition: 5.48%
[8]
  inhibition: 15.3%
[9]
  inhibition: -0.815%

## O=C(O)c1n[nH]c2c1C[C@H]1C[C@@H]21
[1]
  inhibition: -0.352% and 3.65%
[2]
  inhibition: 21.7%
[3]
  inhibition: -6.12%
[4]
  inhibition: -1.48% and -4.98%
[5]
  inhibition: -5.22%
[6]
  inhibition: -5.48%
[10]
  inhibition: -1.41%
[7]
  inhibition: -4.72%
[8]
  inhibition: -4.32%

## COC(=O)N1CCN(C(=O)Cc2ccc(Cl)c(Cl)c2)C(CN2CCCC2)C1 (stereo not given)
[1]
  inhibition: 4.16%
[2]
  inhibition: 19.6%
[3]
  inhibition: 4.69%
[4]
  inhibition: 0.414%
[5]
  inhibition: -9.51%
[6]
  inhibition: -7.07%
[7]
  inhibition: -2.31%
[8]
  inhibition: 11.3%
[9]
  inhibition: -7.49%

## N#Cc1cccc(-c2nc(-c3cccnc3)no2)c1
[1]
  inhibition: 2.53%
[2]
  inhibition: -1.08%
[3]
  inhibition: -6.2%
[4]
  inhibition: -2.39%
[5]
  inhibition: -8.21%
[6]
  inhibition: -5.18%
[7]
  inhibition: -9.43%
[8]
  inhibition: -5.03%
[9]
  inhibition: -2.96%

## N#Cc1ccc(O[C@@H]2c3ccccc3C[C@H]2N2CCC[C@@H](N)C2)c(Cl)c1
[1]
  inhibition: 13.1%
[2]
  inhibition: 3.87%
[3]
  inhibition: 0.102%
[4]
  inhibition: 3.73%
[5]
  inhibition: -4.87%
[6]
  inhibition: 18.8%
[7]
  inhibition: -4.18%
[8]
  inhibition: -4.66%
[9]
  inhibition: -1.13%

## CCCCC[C@H](O)/C=C/[C@@H]1[C@@H](C/C=C\CCCC(=O)O)[C@@H](O)C[C@H]1O
[1]
  inhibition: 7.21%
[2]
  inhibition: 7.79%
[3]
  inhibition: -4.2%
[4]
  inhibition: 0.515%
[5]
  inhibition: 8.11%
[6]
  inhibition: 25.5%
[7]
  inhibition: -6.92%
[8]
  inhibition: -2.06%
[9]
  inhibition: -8.4%

## O=S1(=O)NCN(C2CC2)c2ccc(F)cc21
[1]
  inhibition: 3.86%
[2]
  inhibition: 10.5%
[3]
  inhibition: 6.74%
[4]
  inhibition: 8.57%
[5]
  inhibition: -1.26%
[6]
  inhibition: 10.8%
[7]
  inhibition: 3.15%
[8]
  inhibition: 0.854%
[9]
  inhibition: -3.37%

## O=C(Nc1cc(-c2ccccc2)nn1-c1ccccc1F)c1ccc([N+](=O)[O-])cc1
[1]
  inhibition: -2.66%
[2]
  inhibition: 24.5%
[3]
  inhibition: 7.68%
[4]
  inhibition: 2.96%
[5]
  inhibition: -6.29%
[6]
  inhibition: -4.55%
[7]
  inhibition: 9.2%
[8]
  inhibition: -1.82%
[9]
  inhibition: -0.319%

## CNc1nc(-c2ccc3c(N)n[nH]c3c2)cc(N2C[C@@H](C(=O)NC3CCCCC3)CC[C@H]2C)n1
[1]
  inhibition: 3.84%
[2]
  inhibition: -2%
[3]
  inhibition: 25.6%
[4]
  inhibition: -5.15%
[5]
  inhibition: 20.7%
[6]
  inhibition: 57.1%
[7]
  inhibition: 23.1%
[8]
  inhibition: 21.4%
[9]
  inhibition: 5.37%

## CC(C)(O)c1cnc(N2C[C@@]3(CCC[C@](C)(Cn4cnc5ccc(C#N)cc54)C3)OC2=O)cn1
[1]
  inhibition: 1.2%
[2]
  inhibition: 8%
[3]
  inhibition: 47.1%
[4]
  inhibition: 5.76%
[5]
  inhibition: 2.98%
[6]
  inhibition: 6.22%
[7]
  inhibition: 10.5%
[8]
  inhibition: 9.84%
[9]
  inhibition: -2.44%

## CC[C@H]1CN(c2nc(N)c(C(N)=O)nc2Cl)CCN1C1CCN(Cc2ccc(Cl)cc2)CC1
[1]
  inhibition: 5.05%
[2]
  inhibition: 24.5%
[3]
  inhibition: -3.97%
[4]
  inhibition: 3.47%
[5]
  inhibition: -7.08%
[6]
  inhibition: 2.57%
[7]
  inhibition: -5.95%
[8]
  inhibition: -2.17%
[9]
  inhibition: -8.52%

## Cc1c(F)cccc1[C@H]1COC(N)=N1
[1]
  inhibition: 11.3%
[2]
  inhibition: 14.6%
[3]
  inhibition: 32.1%
[4]
  inhibition: -0.86%
[5]
  inhibition: -8.55%
[6]
  inhibition: 11.7%
[7]
  inhibition: 12.2%
[8]
  inhibition: 5.02%
[9]
  inhibition: -1.2%

## COc1cc(OC2CCN(C(C)=O)CC2)ccc1C(=O)N1CCC(N2C(=O)OCc3ccccc32)CC1
[1]
  inhibition: 2.08%
[2]
  inhibition: 24.5%
[3]
  inhibition: 48.1%
[4]
  inhibition: 5.25%
[5]
  inhibition: -0.579%
[6]
  inhibition: 20.8%
[7]
  inhibition: -3.3%
[8]
  inhibition: 5.95%
[9]
  inhibition: -2.76%

## CO[C@H]1CC=C2CCN3CCC4=C(CC(=O)OC4)[C@]23C1
[1]
  inhibition: -3.1%
[2]
  inhibition: -0.258%
[3]
  inhibition: 1.14%
[4]
  inhibition: -5.96%
[5]
  inhibition: -2.5%
[6]
  inhibition: -1.81%
[7]
  inhibition: -7.01%
[8]
  inhibition: 5.26%
[9]
  inhibition: -6.82%

## CC(C)[C@@H]1CC[C@@H](C)C[C@@H]1P(=O)(c1ccccc1)c1ccccc1
[1]
  inhibition: -6.96%
[2]
  inhibition: 6.35%
[3]
  inhibition: 1.29%
[5]
  inhibition: -9.39%
[6]
  inhibition: -6.96%
[10]
  inhibition: -2.54%
[7]
  inhibition: -5.97%
[8]
  inhibition: 3.26%

## N[C@@]1(C(=O)O)CC[C@H]2[C@H](C(=O)O)[C@H]21
[1]
  inhibition: 5.05%
[2]
  inhibition: 27.8%
[3]
  inhibition: 4.77%
[4]
  inhibition: -1.37%
[5]
  inhibition: 2.53%
[6]
  inhibition: 13.1%
[7]
  inhibition: -1.43%
[8]
  inhibition: 2.62%
[9]
  inhibition: -8.38%

## COc1cc(C(=O)N(CCC2CCCN2C)C/C(C)=C/c2ccccc2F)cc(OC)c1OC (stereo not given)
[1]
  inhibition: 4.16%
[2]
  inhibition: -5.21%
[3]
  inhibition: -4.18%
[4]
  inhibition: -1.62%
[5]
  inhibition: -3.01%
[6]
  inhibition: 0.239%
[7]
  inhibition: -9.88%
[8]
  inhibition: -5.37%
[9]
  inhibition: -3.28%

## CN[C@@H](C)C/C=C/c1cncc(OC(C)C)c1
[1]
  inhibition: -3.1%
[2]
  inhibition: 4.7%
[3]
  inhibition: 16.8%
[4]
  inhibition: 6.78%
[5]
  inhibition: -1.2%
[6]
  inhibition: 4.54%
[7]
  inhibition: -3.71%
[8]
  inhibition: 1.46%
[9]
  inhibition: -5.51%

## C[C@@H](C(N)=O)[C@H](N)c1nc2ccc(C(C)(C)C)cc2[nH]1
[1]
  inhibition: 0.158%
[2]
  inhibition: 12.9%
[3]
  inhibition: 0.595%
[5]
  inhibition: -0.466%
[6]
  inhibition: 6.56%
[7]
  inhibition: 2.09%
[8]
  inhibition: 10.2%
[9]
  inhibition: -4.85%

## C=CC(=O)Nc1cccc(C(=O)Nc2ccc(Nc3cc(-c4[nH]c(S)nc4C)ccn3)cc2)c1
[1]
  inhibition: 5.55%
[2]
  inhibition: -6.89%
[3]
  inhibition: 61%
[4]
  inhibition: 8.04%
[5]
  inhibition: 16.9%
[6]
  inhibition: 102%
[7]
  inhibition: 19.6%
[8]
  inhibition: 23.5%
[9]
  inhibition: 3.19%

## Cc1nnc2ccc(-c3cccc(C(F)(F)F)c3)nn12
[1]
  inhibition: 1.34%
[2]
  inhibition: 22%
[3]
  inhibition: -2.78%
[4]
  inhibition: -0.86%
[5]
  inhibition: -2.84%
[6]
  inhibition: 5.5%
[7]
  inhibition: -6.43%
[8]
  inhibition: 9.3%
[9]
  inhibition: -4.72%
